Results published in patent US9062041B2 (Bayer Intellectual Property GmbH, priority 2011, dated 2015).

Tests used:
Format in all cases: cell-based
[1] = biological target: EP4 subtype of the human PGE2 receptor (Homo sapiens, UniProt P35408); experiment: cAMP antagonism test on the human EP4 receptor (HTRF cAMP detection); conditions: selectivity towards hEP4, IC50 measured by cAMP antagonism test
From the text: 2. Detection of Antagonism to the Human Prostaglandin E2 (Subtype EP4) Receptor Signal
(§1) The binding of PGE2 to the EP4 subtype of the human PGE2 receptor induces the activation of membrane-located adenylate cyclases and leads to the formation of cAMP. In the presence of the phosphodiesterase inhibitor IBMX, the cAMP accumulated owing to this stimulation and released by cell lysis is used in a competitive detection method. In this test, the cAMP present in the lysate competes with a fluorescence-labelled cAMP (cAMP-d2) for binding to an Eu cryptate-labelled anti-cAMP antibody.
(§2) In the absence of cellular cAMP a maximal signal is produced, which is attributable to the binding of this cAMP-d2 molecule to the antibody. After excitation of the […] at 337 nm, there is a fluorescence resonance energy transfer (FRET) to the Eu cryptate molecules of the anti-cAMP antibody (labelled therewith), followed by a long-lasting emission signal at 665 nm (and at […]). Both signals are measured in a suitable measurement instrument with a time delay, i.e. after decay of the background fluorescence. Any increase in the low FRET signal caused by prostaglandin E2 administration (measured as well ratio change=emission665 nm/emission620 nm*10000) indicates the action of antagonists.
2.2.1. Test for Antagonism (Data Per Well of a 384-Well Plate):
(§3) To a test plate with the substance solutions already added (0.05 μl; 100% DMSO, concentration range from 0.8 nM-16.5 μM) were added 4 μl of a cAMP-d2/cell suspension (312500 cells/ml). After a 20-minute preincubation at room temperature (RT), 2 μl of a 3×PGE2 solution (0.3 nM, in PBS-IBMX) were added and incubated in the presence of the agonist for a further 60 mins at RT (volume: ˜6 μl). Next the reaction was stopped by addition of 2 μl of lysis buffer and incubated for a further 20 mins at RT before the actual measurement (volume: ˜8 μl).

[2] = biological target: T1, human PGD receptor (Homo sapiens, UniProt Q13258); experiment: cAMP antagonism test on the human prostaglandin D receptor (HTRF cAMP detection); conditions: selectivity towards hDP, IC50 measured by cAMP antagonism test
T1 sequence (Q13258 1-359): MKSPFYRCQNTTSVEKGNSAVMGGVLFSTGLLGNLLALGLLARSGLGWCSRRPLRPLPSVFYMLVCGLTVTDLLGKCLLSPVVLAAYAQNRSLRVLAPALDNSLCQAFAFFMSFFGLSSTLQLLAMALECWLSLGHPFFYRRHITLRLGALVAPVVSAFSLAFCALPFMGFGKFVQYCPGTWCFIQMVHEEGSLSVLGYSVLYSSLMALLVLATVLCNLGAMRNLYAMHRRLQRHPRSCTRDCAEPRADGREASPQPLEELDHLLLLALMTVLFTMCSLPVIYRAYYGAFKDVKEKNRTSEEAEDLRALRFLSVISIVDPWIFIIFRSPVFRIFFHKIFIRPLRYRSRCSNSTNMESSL
From the text: 3. Detection of Antagonism to the Human Prostaglandin D Receptor Signal
as §1, with “of prostaglandin D2” for “of PGE2”, “the” for “the EP4 subtype of the”, “human PGD” for “human PGE2”
as §2, with “cellular cAMP,” for “cellular cAMP”
3.2.1. Test for Antagonism (Data Per Well of a 384-Well Plate):
as §3, with “(625000” for “(312500”, “3×PGD2” for “3×PGE2”, “(6” for “(0.3”, “30” for “60”

[3] = biological target: EP2 subtype of the human PGE2 receptor (Homo sapiens, UniProt P43116); experiment: cAMP antagonism test on the human EP2 receptor (HTRF cAMP detection); conditions: hEP2 receptor, read-out: Antagonism hEP2 IC50
From the text: 1. Detection of Antagonism to the Human Prostaglandin E2 (Subtype EP2) Receptor Signal
as §1, with “EP2” for “EP4”
as §2, with “cellular cAMP,” for “cellular cAMP”
1.2.1. Test for Antagonism (Data Per Well of a 384-Well Plate):
as §3, with “(625000” for “(312500”, “(1.5” for “(0.3”

EP4 subtype of the human PGE2 receptor, sequence (P35408 whole entry): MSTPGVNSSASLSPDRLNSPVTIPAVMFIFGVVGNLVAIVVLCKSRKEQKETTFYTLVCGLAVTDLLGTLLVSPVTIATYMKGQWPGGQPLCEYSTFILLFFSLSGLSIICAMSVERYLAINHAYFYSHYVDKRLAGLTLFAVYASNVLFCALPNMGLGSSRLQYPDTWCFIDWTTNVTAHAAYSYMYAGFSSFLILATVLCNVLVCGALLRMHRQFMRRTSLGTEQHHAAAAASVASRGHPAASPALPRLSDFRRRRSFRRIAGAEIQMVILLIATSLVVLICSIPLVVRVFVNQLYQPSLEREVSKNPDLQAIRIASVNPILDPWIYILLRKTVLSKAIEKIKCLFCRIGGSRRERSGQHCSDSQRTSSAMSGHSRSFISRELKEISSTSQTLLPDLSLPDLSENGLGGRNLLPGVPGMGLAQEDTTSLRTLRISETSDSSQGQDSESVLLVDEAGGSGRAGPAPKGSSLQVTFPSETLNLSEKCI
EP2 subtype of the human PGE2 receptor, sequence (P43116 whole entry): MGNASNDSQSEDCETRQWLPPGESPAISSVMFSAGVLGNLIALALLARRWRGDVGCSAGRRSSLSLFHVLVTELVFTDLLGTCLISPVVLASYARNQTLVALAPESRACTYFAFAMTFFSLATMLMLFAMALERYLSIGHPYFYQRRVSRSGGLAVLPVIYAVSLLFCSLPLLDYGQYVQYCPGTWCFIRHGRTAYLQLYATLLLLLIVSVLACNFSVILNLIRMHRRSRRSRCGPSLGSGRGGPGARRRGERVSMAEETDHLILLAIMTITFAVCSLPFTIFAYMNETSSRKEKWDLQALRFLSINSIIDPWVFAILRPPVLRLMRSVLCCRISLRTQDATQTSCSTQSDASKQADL

SMILES | Selectivity hEP2/hEP4 [1] | Selectivity hEP2/hDP [2] | IC50 [3] [µM]
Cc1c(C(=O)NCC(F)(F)F)ccc2nn(CC3CCN(C(=O)c4ccc(-c5cnc(C(F)(F)F)nc5)cc4)CC3)cc12 [Example 328, 4-methyl-N-(2,2,2-trifluoroethyl)-2-[(1-{4-[2-(trifluoromethyl)pyrimidin-5-yl]-benzoyl}piperidin-4-yl)methyl]-2H-indazol-5-carboxamide] | xx (xx: 10-100) | xx (xx: 10-100) | 0.256
Cc1cc2nn(CC3CN(C(=O)c4ccc(S(F)(F)(F)(F)F)cc4)C3)cc2cc1C(=O)NCCN1CCOCC1 [Example 280, 6-methyl-N-(2-morpholinoethyl)-2-({1-[4-(pentafluoro-λ^6-sulphanyl)benzoyl]-azetidin-3-yl}methyl)-2H-indazol-5-carboxamide] | xxx (xxx > 100) | xxx (xxx > 100) | 0.0307
Cc1cc2nn(CC3CCN(C(=O)c4cccc(C(F)(F)F)c4)CC3)cc2cc1C(=O)NCCN1CCOCC1 [Example 82, 6-methyl-N-(2-morph-olinoethyl)-2-({1-[3-(trifluoromethyl)-benzoyl]piperidin-4-yl}methyl)-2H-indazol-5-carboxamide] | xx (xx: 10-100) | xx (xx: 10-100) | 0.218
COCCNC(=O)c1cc2cn(CC3CN(C(=O)c4ccc(Oc5ccc(C(F)(F)F)cc5)cc4)C3)nc2cc1C [Example 202, N-(2-methoxyethyl)-6-methyl-2-[(1-{4-[4-(trifluoromethyl)phenoxy]benzoyl}-azetidin-3-yl)methyl]-2H-indazol-5-carboxamide] | xxx (xxx > 100) | xxx (xxx > 100) | 0.00506
COCCNC(=O)c1ccc2nn(CC3CN(C(=O)c4cc5ccc(OC)cc5n4C)C3)cc2c1C [Example 173, N-(2-methoxyethyl)-2-({1-[(6-methoxy-1-methyl-1H-indol-2-yl)carbonyl]azetidin-3-yl}methyl)-4-methyl-2H-indazol-5-carboxamide] | xxx (xxx > 100) | xxx (xxx > 100) | 0.00271
Cc1c(C(=O)NCC(F)(F)F)ccc2nn(CC3CCN(C(=O)c4cc5cc(Cl)ccc5n4C)CC3)cc12 [Example 294, 2-({1-[(5-chloro-1-methyl-1H-indol-2-yl)carbonyl]piperidin-4-yl}methyl)-4-methyl-N-(2,2,2-trifluoroethyl)-2H-indazol-5-carboxamide] | xxx (xxx > 100) | xxx (xxx > 100) | 0.0132
Cc1ccc(C(=O)N2CCC(Cn3cc4c(C)c(C(=O)NCCOC(C)C)ccc4n3)CC2)cc1 [Example 97, N-(2-isopropoxy-ethyl)-4-methyl-2-{[1-(4-methyl-benzoyl)piperidin-4-yl]methyl}-2H-indazol-5-carboxamide] | xxx (xxx > 100) | xxx (xxx > 100) | 0.0127
Cc1c(C(=O)NCC(F)(F)F)ccc2nn(CC3CN(C(=O)c4ccc(OC(F)(F)F)cc4)C3)cc12 [Example 130, 4-methyl-N-(2,2,2-trifluoroethyl)-2-({1-[4-(trifluoromethoxy)benzoyl]azetidin-3-yl}methyl)-2H-indazol-5-carboxamide] | xx (xx: 10-100) | xx (xx: 10-100) | 0.241
COCCNC(=O)c1ccc2nn(CC3CCN(C(=O)c4ccc(OC(F)F)cc4F)CC3)cc2c1C [Example 40, 2-({1-[4-(difluoro-methoxy)-2-fluoro-benzoyl]piperidin-4-yl}methyl)-N-(2-methoxyethyl)-4-methyl-2H-indazol-5-carboxamide] | xxx (xxx > 100) | xxx (xxx > 100) | 0.0115
COCCNC(=O)c1ccc2nn(CC3CN(C(=O)c4ccc(SC(F)(F)F)cc4)C3)cc2c1C [Example 118, N-(2-methoxyethyl)-4-methyl-2-[(1-{4-[(trifluoromethyl)sulphanyl]benzoyl}azetidin-3-yl)methyl]-2H-indazol-5-carboxamide] |  | xxx (xxx > 100) | 0.00817
COCCNC(=O)c1ccc2nn(CC3CN(C(=O)c4ccc(OC(F)(F)F)cc4)C3)cc2c1C [Example 119, N-(2-methoxyethyl)-4-methyl-2-({1-[4-(trifluoromethoxy)benzoyl]azetidin-3-yl}methyl)-2H-indazol-5-carboxamide] |  | xxx (xxx > 100) | 0.0132
Cc1c(C(=O)NCCN2CCC(F)(F)C2)ccc2nn(CC3CCN(C(=O)c4ccc(SC(F)(F)F)cc4)CC3)cc12 [Example 70, N-[2-(3,3-difluoropyrrolidin-1-yl)ethyl]-4-methyl-2-[(1-{4-[(trifluoromethyl)sulphanyl]benzoyl}piperidin-4-yl)methyl]-2H-indazol-5-carboxamide] |  | xxx (xxx > 100) | 0.049
COCCNC(=O)c1ccc2nn(CC3CN(C(=O)c4ccc(Cl)c(C(F)(F)F)c4)C3)cc2c1OC [Example 256, 2-({1-[4-chloro-3-(trifluoromethyl)benzoyl]azetidin-3-yl}methyl)-4-methoxy-N-(2-methoxyethyl)-2H-indazol-5-carboxamide] | xxx (xxx > 100) |  | 0.107
Cc1c(C(=O)NCCN2CCC(F)(F)C2)ccc2nn(CC3CCN(C(=O)c4ccc(Cl)cc4)CC3)cc12 [Example 69, 2-{[1-(4-chlorobenzoyl)piperidin-4-yl]methyl}-N-[2-(3,3-difluoropyrrolidin-1-yl)ethyl]-4-methyl-2H-indazol-5-carboxamide] |  | xxx (xxx > 100) | 0.029
COCCNC(=O)c1ccc2nn(CC3CN(C(=O)c4ccc(C(F)(F)F)cc4F)C3)cc2c1C [Example 120, 2-({1-[2-fluoro-4-(trifluoromethyl)benzoyl]azetidin-3-yl}methyl)-N-(2-methoxy-ethyl)-4-methyl-2H-indazol-5-carboxamide] |  | xxx (xxx > 100) | 0.0155
